Counter-ions that a name gives are not always drawn. Like-named read-outs stand apart in the source and are kept apart here.
Key:
Dopamine D2L = molecular target: T1, Dopamine D2L (Homo sapiens, UniProt P14416); assay: Eurofins SafetyScreen panel; assay type: binding
T1 construct: purchased Eurofins (Panlabs) SafetyScreen87 Panel

Melanocortin MC4 = molecular target: T2, Melanocortin MC4 (Homo sapiens, UniProt P32245); assay: Eurofins SafetyScreen panel; assay type: binding
T2 construct: purchased Eurofins (Panlabs) SafetyScreen87 Panel

Melanocortin MC1 = molecular target: T3, Melanocortin MC1 (Homo sapiens, UniProt Q01726); assay: Eurofins SafetyScreen panel; assay type: binding
T3 construct: purchased Eurofins (Panlabs) SafetyScreen87 Panel
T3 sequence (Q01726 whole entry): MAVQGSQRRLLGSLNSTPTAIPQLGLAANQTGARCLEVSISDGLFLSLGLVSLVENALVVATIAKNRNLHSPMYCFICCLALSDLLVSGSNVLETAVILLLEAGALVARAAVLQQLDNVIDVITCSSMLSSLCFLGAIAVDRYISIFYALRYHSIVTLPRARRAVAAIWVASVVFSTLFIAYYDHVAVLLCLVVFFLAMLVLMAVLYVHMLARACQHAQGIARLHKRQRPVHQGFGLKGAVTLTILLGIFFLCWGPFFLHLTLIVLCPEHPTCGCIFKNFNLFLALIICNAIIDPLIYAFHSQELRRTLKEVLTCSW

Serotonin 5-HT2C = molecular target: T4, Serotonin 5-HT2C (Homo sapiens, UniProt P28335); assay: Eurofins SafetyScreen panel; assay type: binding
T4 construct: Eurofins (contract assay)
T4 sequence (P28335 33-458): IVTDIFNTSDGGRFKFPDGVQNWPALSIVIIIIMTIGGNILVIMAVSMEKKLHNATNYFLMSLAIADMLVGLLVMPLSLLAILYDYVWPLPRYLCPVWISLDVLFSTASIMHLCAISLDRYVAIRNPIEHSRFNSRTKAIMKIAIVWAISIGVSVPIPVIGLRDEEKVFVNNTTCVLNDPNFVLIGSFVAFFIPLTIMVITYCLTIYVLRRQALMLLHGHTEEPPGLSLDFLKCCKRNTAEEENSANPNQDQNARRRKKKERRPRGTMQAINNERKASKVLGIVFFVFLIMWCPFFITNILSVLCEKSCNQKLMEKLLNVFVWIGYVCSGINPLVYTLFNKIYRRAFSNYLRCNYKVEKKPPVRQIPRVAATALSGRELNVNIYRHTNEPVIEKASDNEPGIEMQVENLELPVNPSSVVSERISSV

Serotonin 5-HT4 = molecular target: T5, Serotonin 5-HT4 (Cavia porcellus, UniProt O70528); assay: Eurofins SafetyScreen panel; assay type: binding, guinea pig
T5 construct: Eurofins (contract assay) 272000

5-HT2B receptors = molecular target: T6, 5-HT2B receptors (Homo sapiens, UniProt P41595); assay: Agonist effect at 5-HT2B receptors (HTRF, Eurofins); assay type: cell-based; settings: 1 μM
T6 construct: Eurofins, France
Experimental: Experiment was performed in duplicate at Eurofins, France.

Adrenergic α1A = molecular target: T7, Adrenergic α1A (Rattus norvegicus, UniProt P43140); assay: Eurofins SafetyScreen panel; assay type: binding
T7 construct: Eurofins (contract screening, SafetyScreen panel) PP223

GABA Transporter = molecular target: T8, GABA Transporter (Rattus norvegicus, UniProt P23978); assay: Eurofins SafetyScreen panel; assay type: binding
T8 construct: Eurofins (contract assay)

MAO-A = molecular target: T9, MAO-A (Homo sapiens, UniProt P21397); assay: Eurofins SafetyScreen panel; assay type: biochemical
T9 construct: Eurofins

[1] = molecular target: T10, Leukotriene, Cysteinyl CysLT1 (Homo sapiens, UniProt Q9Y271); assay: Eurofins SafetyScreen panel; assay type: binding
T10 construct: purchased Eurofins (Panlabs) SafetyScreen87 Panel

Tachykinin NK1 = molecular target: T11, Tachykinin NK1 (Homo sapiens, UniProt P25103); assay: Eurofins SafetyScreen panel; assay type: binding
T11 construct: Eurofins (contract assay)
T11 sequence (P25103 whole entry): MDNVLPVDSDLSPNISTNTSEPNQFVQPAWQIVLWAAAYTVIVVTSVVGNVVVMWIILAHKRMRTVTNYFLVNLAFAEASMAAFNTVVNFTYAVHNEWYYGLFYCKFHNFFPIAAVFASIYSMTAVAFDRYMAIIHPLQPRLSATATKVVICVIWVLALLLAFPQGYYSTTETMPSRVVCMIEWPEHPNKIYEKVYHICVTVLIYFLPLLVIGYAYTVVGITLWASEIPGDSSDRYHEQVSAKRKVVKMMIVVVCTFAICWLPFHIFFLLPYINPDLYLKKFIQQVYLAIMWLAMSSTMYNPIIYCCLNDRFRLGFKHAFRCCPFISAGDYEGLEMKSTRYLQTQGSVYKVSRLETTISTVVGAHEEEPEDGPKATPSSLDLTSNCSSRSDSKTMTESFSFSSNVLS

Opiate σ1 (OP1, DOP) = molecular target: T12, Opiate σ1 (OP1, DOP) (Homo sapiens, UniProt P41143); assay: Eurofins SafetyScreen panel; assay type: binding; settings: read-out: %inh
T12 construct: Eurofins (contract assay)

Muscarinic M2 = molecular target: T13, Muscarinic M2 (Homo sapiens, UniProt P08172); assay: Eurofins SafetyScreen panel; assay type: binding
T13 construct: Eurofins (contract screening, SafetyScreen panel) PP223

Endothelin ETA = molecular target: T14, Endothelin ETA (Homo sapiens, UniProt P25101); assay: Eurofins SafetyScreen panel; assay type: binding
T14 construct: purchased Eurofins (Panlabs) SafetyScreen87 Panel

Muscarinic M3 = molecular target: T15, Muscarinic M3 (Homo sapiens, UniProt P20309); assay: Eurofins SafetyScreen panel; assay type: binding
T15 construct: Eurofins (contract screening, SafetyScreen panel) PP223
T15 sequence (P20309 whole entry): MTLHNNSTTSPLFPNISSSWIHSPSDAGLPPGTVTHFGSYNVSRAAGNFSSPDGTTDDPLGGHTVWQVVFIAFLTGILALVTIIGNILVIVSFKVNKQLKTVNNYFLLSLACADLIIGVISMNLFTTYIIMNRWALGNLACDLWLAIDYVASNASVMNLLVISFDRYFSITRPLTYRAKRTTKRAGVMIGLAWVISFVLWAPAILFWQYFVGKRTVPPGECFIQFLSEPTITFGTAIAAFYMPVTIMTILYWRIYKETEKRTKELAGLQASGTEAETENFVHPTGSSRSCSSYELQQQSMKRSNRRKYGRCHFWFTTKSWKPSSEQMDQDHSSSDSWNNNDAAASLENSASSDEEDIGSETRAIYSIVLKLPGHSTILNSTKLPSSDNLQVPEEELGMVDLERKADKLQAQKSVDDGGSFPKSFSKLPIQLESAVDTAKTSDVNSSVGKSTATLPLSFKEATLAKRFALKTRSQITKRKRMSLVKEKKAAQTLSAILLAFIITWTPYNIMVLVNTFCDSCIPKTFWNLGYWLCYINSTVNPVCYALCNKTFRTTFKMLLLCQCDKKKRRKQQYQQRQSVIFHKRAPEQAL

Serotonin 5-HT7 = molecular target: T16, Serotonin 5-HT7 (Homo sapiens, UniProt P34969); assay: Eurofins SafetyScreen panel; assay type: binding
T16 construct: Eurofins (contract assay) 272320
T16 sequence (P34969 whole entry): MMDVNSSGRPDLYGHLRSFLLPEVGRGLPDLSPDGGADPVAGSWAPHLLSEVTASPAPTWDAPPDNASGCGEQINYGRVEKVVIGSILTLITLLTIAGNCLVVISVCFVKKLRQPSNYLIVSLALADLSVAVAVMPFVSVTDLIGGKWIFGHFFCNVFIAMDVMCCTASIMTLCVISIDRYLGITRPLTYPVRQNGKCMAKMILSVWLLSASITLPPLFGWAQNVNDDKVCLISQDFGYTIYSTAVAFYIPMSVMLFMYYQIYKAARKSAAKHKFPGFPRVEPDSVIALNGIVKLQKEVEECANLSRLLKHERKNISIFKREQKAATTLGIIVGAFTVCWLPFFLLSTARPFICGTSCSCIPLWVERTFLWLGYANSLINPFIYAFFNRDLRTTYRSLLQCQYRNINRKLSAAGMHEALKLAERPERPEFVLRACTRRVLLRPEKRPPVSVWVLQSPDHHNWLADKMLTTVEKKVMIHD

Adrenergic β2 = molecular target: T17, Adrenergic β2 (Homo sapiens, UniProt P07550); assay: Eurofins SafetyScreen panel; assay type: binding
T17 construct: Eurofins (contract screening, SafetyScreen panel) PP223
T17 sequence (P07550 whole entry): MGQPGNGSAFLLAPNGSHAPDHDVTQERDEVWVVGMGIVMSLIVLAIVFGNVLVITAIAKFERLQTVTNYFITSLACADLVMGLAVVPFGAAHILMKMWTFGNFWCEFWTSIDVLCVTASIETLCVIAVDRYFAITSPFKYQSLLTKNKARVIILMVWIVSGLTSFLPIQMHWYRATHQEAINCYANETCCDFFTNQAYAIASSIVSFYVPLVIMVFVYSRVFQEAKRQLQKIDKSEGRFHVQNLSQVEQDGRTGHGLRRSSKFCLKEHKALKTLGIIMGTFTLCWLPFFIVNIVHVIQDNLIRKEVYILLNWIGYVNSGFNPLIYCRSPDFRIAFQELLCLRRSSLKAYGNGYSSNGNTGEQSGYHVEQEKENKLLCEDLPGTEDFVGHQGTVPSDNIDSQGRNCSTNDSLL

Histamine H3 = molecular target: T18, Histamine H3 (Homo sapiens, UniProt Q9Y5N1); assay: Eurofins SafetyScreen panel; assay type: binding
T18 construct: purchased Eurofins (Panlabs) SafetyScreen87 Panel

[2] = molecular target: T19, Dopamine Transporter (DAT) (Homo sapiens, UniProt Q01959); assay: Eurofins SafetyScreen panel; assay type: binding
T19 construct: Eurofins (contract assay)
T19 sequence (Q01959 whole entry): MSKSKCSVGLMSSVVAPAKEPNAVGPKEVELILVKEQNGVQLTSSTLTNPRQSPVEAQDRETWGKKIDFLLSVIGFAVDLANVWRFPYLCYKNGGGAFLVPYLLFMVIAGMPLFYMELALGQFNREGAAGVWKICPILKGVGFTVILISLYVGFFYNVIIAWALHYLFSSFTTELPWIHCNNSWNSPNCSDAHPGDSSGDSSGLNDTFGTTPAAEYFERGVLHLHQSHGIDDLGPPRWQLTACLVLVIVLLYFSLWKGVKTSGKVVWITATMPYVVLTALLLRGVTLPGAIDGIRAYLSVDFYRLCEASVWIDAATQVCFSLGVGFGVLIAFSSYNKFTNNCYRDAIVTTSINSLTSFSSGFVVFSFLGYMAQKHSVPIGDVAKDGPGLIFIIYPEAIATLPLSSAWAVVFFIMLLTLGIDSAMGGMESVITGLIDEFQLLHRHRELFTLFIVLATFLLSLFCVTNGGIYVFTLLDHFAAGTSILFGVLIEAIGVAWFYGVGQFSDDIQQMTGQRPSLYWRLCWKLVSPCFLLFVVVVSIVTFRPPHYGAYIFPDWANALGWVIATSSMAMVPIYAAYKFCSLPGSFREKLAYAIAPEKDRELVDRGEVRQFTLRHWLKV

Progesterone PR-B = molecular target: T20, Progesterone PR-B (Homo sapiens, UniProt P06401); assay: Eurofins SafetyScreen panel; assay type: binding
T20 construct: Eurofins (contract assay)

CYP2D6 = CYP2D6 (Homo sapiens, UniProt P10635); assay: Cytochrome P450 inhibition (Eurofins); settings: at 10 μM; listed as 17, 10 µM
Chemokine CCR2 (IL-8RB) = molecular target: T21, Chemokine CCR2 (IL-8RB) (Homo sapiens, UniProt P25025); assay: Eurofins SafetyScreen panel; assay type: binding; settings: read-out: %inh
T21 construct: purchased Eurofins (Panlabs) SafetyScreen87 Panel

MAO-B = molecular target: T22, MAO-B (Homo sapiens, UniProt P27338); assay: Eurofins SafetyScreen panel; assay type: biochemical
T22 construct: Eurofins
T22 sequence (P27338 whole entry): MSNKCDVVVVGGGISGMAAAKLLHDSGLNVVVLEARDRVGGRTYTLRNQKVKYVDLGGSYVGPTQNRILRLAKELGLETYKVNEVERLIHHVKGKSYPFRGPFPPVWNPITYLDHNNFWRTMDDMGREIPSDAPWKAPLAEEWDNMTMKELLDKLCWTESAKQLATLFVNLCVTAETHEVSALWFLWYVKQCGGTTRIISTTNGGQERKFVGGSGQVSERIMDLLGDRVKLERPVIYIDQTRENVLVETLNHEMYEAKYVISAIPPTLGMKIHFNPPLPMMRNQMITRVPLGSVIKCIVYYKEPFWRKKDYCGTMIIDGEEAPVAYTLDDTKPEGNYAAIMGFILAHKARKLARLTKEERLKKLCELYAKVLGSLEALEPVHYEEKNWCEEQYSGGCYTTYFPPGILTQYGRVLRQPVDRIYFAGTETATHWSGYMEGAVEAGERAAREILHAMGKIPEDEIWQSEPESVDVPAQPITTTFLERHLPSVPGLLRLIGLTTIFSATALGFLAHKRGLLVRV

COX-1 = molecular target: T23, COX-1 (Homo sapiens, UniProt P23219); assay: Eurofins SafetyScreen panel; assay type: biochemical
T23 construct: Eurofins

Bradykinin B2 = molecular target: T24, Bradykinin B2 (Homo sapiens, UniProt P30411); assay: Eurofins SafetyScreen panel; assay type: binding
T24 construct: Eurofins (contract screening, SafetyScreen panel) PP223

CYP3A4 = CYP3A4 (Homo sapiens, UniProt P08684); assay: Cytochrome P450 inhibition (Eurofins)
CYP1A2 = CYP1A2 (Homo sapiens, UniProt P05177); assay: Cytochrome P450 inhibition (Eurofins)
Sequence of CYP1A2 (P05177 whole entry): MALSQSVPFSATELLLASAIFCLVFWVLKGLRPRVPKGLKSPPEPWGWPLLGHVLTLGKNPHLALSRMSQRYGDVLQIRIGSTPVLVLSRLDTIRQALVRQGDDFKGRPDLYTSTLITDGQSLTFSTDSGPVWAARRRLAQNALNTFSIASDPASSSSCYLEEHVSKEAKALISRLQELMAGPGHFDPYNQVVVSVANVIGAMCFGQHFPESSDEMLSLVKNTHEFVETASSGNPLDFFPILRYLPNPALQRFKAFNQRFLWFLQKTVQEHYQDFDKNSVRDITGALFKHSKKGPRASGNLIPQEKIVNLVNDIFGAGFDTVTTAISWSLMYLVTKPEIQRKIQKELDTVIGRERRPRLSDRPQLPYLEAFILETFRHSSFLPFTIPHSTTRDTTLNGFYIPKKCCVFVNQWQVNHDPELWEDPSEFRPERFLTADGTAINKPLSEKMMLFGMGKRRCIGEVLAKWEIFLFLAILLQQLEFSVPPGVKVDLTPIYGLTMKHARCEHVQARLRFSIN

Dopamine D3 = molecular target: T25, Dopamine D3 (Homo sapiens, UniProt P35462); assay: Eurofins SafetyScreen panel; assay type: binding
T25 construct: Eurofins (contract screening) 219800
T25 sequence (P35462 whole entry): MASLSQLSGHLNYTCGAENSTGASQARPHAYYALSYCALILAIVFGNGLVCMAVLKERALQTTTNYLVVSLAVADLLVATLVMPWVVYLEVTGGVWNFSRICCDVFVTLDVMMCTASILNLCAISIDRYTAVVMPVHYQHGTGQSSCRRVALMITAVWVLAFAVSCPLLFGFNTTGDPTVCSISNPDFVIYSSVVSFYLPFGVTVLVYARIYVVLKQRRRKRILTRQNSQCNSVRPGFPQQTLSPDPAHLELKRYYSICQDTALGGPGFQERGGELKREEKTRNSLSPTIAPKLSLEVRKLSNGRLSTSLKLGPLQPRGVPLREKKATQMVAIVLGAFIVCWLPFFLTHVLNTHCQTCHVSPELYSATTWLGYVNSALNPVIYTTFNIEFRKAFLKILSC

[3] = read-out: %inh, 10 μM, additional batch

T1 sequence (P14416 whole entry): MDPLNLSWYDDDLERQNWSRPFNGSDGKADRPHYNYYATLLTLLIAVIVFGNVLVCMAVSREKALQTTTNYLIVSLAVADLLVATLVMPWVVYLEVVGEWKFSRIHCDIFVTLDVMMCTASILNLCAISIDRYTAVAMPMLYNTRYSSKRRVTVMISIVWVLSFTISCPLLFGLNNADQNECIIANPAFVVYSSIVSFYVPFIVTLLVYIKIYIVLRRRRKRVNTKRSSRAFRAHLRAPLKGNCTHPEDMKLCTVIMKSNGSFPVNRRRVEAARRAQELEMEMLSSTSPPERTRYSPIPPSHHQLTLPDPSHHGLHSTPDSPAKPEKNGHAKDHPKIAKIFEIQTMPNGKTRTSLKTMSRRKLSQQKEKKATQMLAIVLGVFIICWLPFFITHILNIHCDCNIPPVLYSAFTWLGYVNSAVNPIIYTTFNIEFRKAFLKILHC

O=S(=O)(c1cccc(F)c1)n1ccc2c(N3CCNCC3)nc3ccccc3c21 [FPPQ, 1-[(3-Fluorophenyl)sulfonyl]-4-(piperazin-1-yl)-1H-pyrrolo[3,2-c]quinoline dihydrochloride]
inhibition at 10 µM (Dopamine D2L): 46%
inhibition at 10 µM (Melanocortin MC4): 27%
inhibition at 10 µM (Melanocortin MC1): 10%
IC50 (Serotonin 5-HT2C): 1.58 µM
Ki (Serotonin 5-HT2C): 0.83 µM
inhibition at 0.01 µM (Serotonin 5-HT2C; read-out: %inh, 10 nM, additional batch): -5%
inhibition at 0.1 µM (Serotonin 5-HT2C; read-out: %inh, 0.1 μM): -6%
inhibition at 1 µM (Serotonin 5-HT2C; read-out: %inh, 1 μM): 32%
inhibition at 10 µM (Serotonin 5-HT2C; read-out: %inh, 10 μM): 94%
inhibition at 10 µM (Serotonin 5-HT2C; [3]): 93%
inhibition at 10 µM (Serotonin 5-HT4): 30%
agonistic effect at 5-HT2BR (5-HT2B receptors): 3.6 % inhibition
inhibition at 10 µM (Adrenergic α1A): 34%
inhibition at 10 µM (GABA Transporter): 3%
inhibition at 10 µM (MAO-A): 12%
inhibition at 10 µM [1]: 10%
IC50 (Tachykinin NK1): 13.7 µM
Ki (Tachykinin NK1): 9.92 µM
inhibition at 0.1 µM (Tachykinin NK1; 0.1 μM): 0%
inhibition at 1 µM (Tachykinin NK1; 1 μM): 10%
inhibition at 10 µM (Tachykinin NK1): 40%
inhibition at 10 µM (Tachykinin NK1; additional batch): 58%
inhibition at 100 µM (Tachykinin NK1; 100 μM): 92%
inhibition at 10 µM (Opiate σ1 (OP1, DOP)): 7%
inhibition at 10 µM (Muscarinic M2): 5%
inhibition at 10 µM (Endothelin ETA): 3%
inhibition at 10 µM (Muscarinic M3): 43%
inhibition at 0.1 µM (Serotonin 5-HT7; read-out: %inh, 0.1 μM): -1%
inhibition at 1 µM (Serotonin 5-HT7; read-out: %inh, 1 μM): 21%
inhibition at 10 µM (Serotonin 5-HT7; read-out: %inh, 10 μM): 65%
inhibition at 10 µM (Serotonin 5-HT7; [3]): 67%
inhibition at 100 µM (Serotonin 5-HT7; read-out: %inh, 100 μM): 93%
IC50 (Adrenergic β2): 0.12 µM
Ki (Adrenergic β2): 0.085 µM
inhibition at 0.01 µM (Adrenergic β2; 10 nM): 9%
inhibition at 0.1 µM (Adrenergic β2; 0.1 μM): 43%
inhibition at 1 µM (Adrenergic β2; 1 μM): 93%
inhibition at 10 µM (Adrenergic β2): 103%
inhibition at 10 µM (Adrenergic β2; additional batch): 99%
inhibition at 10 µM (Histamine H3): 26%
IC50 [2]: 1.37 µM
inhibition at 0.01 µM ([2]; read-out: %inh, 10 nM): 2%
inhibition at 0.1 µM ([2]; read-out: %inh, 0.1 μM): 6%
inhibition at 1 µM ([2]; read-out: %inh, 1 μM): 31%
inhibition at 10 µM ([2]; read-out: %inh, 10 μM): 101%
inhibition at 10 µM [2, 3]: 98%
inhibition at 10 µM (Progesterone PR-B): 21%
cytochrome P450 inhibition 2D6 (CYP2D6): < 25% inh at 10 uM
inhibition at 10 µM (Chemokine CCR2 (IL-8RB)): 21%
inhibition at 10 µM (MAO-B): 21%
inhibition at 10 µM (COX-1): -6%
inhibition at 10 µM (Bradykinin B2): 0%
IC50 (CYP3A4): 57 µM
IC50 (CYP1A2): 12 µM
IC50 (Dopamine D3): 0.63 µM
Ki (Dopamine D3): 0.21 µM
inhibition at 0.01 µM (Dopamine D3; read-out: %inh, 10 nM): -2%
inhibition at 0.1 µM (Dopamine D3; read-out: %inh, 0.1 μM): 14%
inhibition at 1 µM (Dopamine D3; read-out: %inh, 1 μM): 63%
inhibition at 10 µM (Dopamine D3; read-out: %inh, 10 μM): 89%
inhibition at 10 µM (Dopamine D3; [3]): 90%

— paper PMC8474115 (Journal of Medicinal Chemistry, 2021)
